Source: article PMC5473904, “Epigenetic and antitumor effects of platinum(IV)-octanoato conjugates” (Scientific Reports, 2017)

Test system: Lewis lung carcinoma (LLC)
Experiment: In vivo antitumor activity in Lewis lung carcinoma
Details: LLC in C57BL mice; for Average tumor weight (mean ± SD): 20 mg kg^−1 daily orally day 7–14, day 15; for Inhibition of tumor growth: 20 mg kg^−1 daily orally day 7–14, day 15, referred to control animals
Method: Xenograft LLC tumors were grown in C57BL mice that were subsequently treated with […] of either Pt(IV) complex. Pt(IV) prodrugs were administered by oral gavage by taking advantage of their excellent stability, enabling in vivo oral formulation making platinum therapy safer lessening side effects and partially overcoming resistance to platinum(II) drugs, [35]. The schedule of Pt(IV) prodrug administration in vivo was initially determined by assessing the total dose that could be injected without undue toxicity in nontumor-bearing C57BL mice. From day 7 after tumor inoculation, when tumors became visible, tumor-bearing mice received daily doses of the Pt(IV) derivatives (20 mg kg^−1, by oral gavage).
The LLC cell line was purchased from ECACC, United Kingdom. The LLC cell line was maintained in DMEM (Euroclone) supplemented with 10% heat-inactivated fetal bovine serum (FBS; Euroclone), 10 mM L-glutamine, 100 U mL^−1 penicillin, and 100 μg mL^−1 streptomycin in a 5% CO2 air incubator at 37 °C. The LLC was implanted intramuscularly (im) as a 2 × 10^6 cell inoculum into the right hind leg of 8-week old male and female C57BL mice (24 ± 3 g body weight). […] At day 15, animals were sacrificed, the legs were amputated at the proximal end of the femur, and the inhibition of tumor growth was determined according to the difference in weight of the tumor-bearing leg, and the healthy leg of the animals expressed as a percentage referred to the control animals. Body weight was measured every two days and was taken as a parameter for systemic toxicity. All the values are the means ± SD of not less than three measurements.

| Compound | Average tumor weight (mean ± SD) [g] | Inhibition of tumor growth [%] |
| --- | --- | --- |
| CCCC(=O)[O][Pt]([NH2])([NH2])([Cl])([Cl])[O]C(=O)CCC [Pt(IV)diBA, cis, cis, trans-[Pt(IV)(NH3)2Cl2(BA)2]] | 0.109 ± 0.05 | 80 |
| CCCCCC(=O)[O][Pt]([NH2])([NH2])([Cl])([Cl])[O]C(=O)CCCCC [Pt(IV)diHA, cis, cis, trans-[Pt(IV)(NH3)2Cl2(HA)2]] | 0.088 ± 0.06 | 84 |
